This is an account of results in patent publication US9266939B2, “Compositions comprising natriuretic peptides and methods of use thereof” (Alexion Pharmaceuticals, Inc., priority 2010, dated 2016).

Several values for one entry are separate records, joined by “and”; a condition that tells them apart may be missing. Equal values may be shown once. Peptide text beside a SMILES is read from it.

Data set [1] concerns the target neutral endopeptidase (NEP) (Homo sapiens, UniProt P08473).
A further data set concerns the target T1, NPR-B (Homo sapiens, UniProt P20594).
T1 sequence (P20594 23-1047): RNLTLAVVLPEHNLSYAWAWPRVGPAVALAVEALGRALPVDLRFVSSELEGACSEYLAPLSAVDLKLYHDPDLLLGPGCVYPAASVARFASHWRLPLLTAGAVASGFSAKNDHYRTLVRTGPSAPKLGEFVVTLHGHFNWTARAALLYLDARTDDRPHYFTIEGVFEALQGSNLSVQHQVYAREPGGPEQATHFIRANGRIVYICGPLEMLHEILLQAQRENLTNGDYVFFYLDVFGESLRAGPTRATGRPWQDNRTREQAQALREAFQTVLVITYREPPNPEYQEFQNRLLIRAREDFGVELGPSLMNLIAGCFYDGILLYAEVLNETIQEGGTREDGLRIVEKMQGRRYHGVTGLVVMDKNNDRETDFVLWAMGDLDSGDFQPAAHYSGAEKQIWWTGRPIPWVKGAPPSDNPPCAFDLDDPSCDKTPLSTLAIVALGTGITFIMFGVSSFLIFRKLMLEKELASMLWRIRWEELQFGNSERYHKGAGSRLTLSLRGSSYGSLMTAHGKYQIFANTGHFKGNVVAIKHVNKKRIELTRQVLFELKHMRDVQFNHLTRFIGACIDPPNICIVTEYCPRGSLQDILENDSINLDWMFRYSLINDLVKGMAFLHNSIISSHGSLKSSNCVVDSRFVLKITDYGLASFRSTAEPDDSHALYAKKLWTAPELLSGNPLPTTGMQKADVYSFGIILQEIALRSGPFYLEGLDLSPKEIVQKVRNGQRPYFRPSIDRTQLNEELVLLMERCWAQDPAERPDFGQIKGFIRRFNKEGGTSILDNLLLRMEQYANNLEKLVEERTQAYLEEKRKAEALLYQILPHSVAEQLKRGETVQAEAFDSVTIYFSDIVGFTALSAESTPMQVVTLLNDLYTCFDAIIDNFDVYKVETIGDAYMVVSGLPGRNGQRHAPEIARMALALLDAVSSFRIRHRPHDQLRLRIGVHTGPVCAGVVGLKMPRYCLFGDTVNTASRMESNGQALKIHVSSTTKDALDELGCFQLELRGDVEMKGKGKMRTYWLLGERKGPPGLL
In words: Membrane guanylyl cyclase (cGMP) assay, NPR-B. Format: biochemical.

For the next data set, the target named is NPR-A (Homo sapiens, UniProt P16066). The format is biochemical.
Sequence of NPR-A (P16066 33-1061): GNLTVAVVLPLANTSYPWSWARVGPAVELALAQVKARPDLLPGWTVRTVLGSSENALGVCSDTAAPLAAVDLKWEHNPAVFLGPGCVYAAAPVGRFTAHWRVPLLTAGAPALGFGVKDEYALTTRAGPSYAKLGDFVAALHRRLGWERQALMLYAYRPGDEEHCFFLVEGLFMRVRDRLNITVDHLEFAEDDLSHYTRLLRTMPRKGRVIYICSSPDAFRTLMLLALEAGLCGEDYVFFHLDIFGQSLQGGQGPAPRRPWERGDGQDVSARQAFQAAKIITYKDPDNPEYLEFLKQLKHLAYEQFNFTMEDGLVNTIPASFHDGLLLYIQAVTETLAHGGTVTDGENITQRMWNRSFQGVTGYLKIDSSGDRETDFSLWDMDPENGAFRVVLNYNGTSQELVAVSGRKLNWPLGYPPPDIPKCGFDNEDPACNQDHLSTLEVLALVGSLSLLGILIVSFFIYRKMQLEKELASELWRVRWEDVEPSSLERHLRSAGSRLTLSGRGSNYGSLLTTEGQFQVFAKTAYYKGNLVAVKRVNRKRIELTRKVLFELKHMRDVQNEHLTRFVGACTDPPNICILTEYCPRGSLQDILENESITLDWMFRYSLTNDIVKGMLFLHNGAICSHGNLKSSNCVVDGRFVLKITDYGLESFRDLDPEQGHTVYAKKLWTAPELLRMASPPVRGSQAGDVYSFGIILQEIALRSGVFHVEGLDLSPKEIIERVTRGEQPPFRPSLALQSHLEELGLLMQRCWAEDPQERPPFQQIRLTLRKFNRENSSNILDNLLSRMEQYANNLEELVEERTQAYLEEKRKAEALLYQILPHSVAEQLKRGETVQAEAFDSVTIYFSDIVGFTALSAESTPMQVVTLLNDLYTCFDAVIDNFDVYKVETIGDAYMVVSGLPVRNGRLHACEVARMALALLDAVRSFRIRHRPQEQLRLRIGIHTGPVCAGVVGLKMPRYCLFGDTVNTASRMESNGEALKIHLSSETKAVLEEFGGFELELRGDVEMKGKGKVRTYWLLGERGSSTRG

Sequence of neutral endopeptidase (NEP) (P08473 whole entry): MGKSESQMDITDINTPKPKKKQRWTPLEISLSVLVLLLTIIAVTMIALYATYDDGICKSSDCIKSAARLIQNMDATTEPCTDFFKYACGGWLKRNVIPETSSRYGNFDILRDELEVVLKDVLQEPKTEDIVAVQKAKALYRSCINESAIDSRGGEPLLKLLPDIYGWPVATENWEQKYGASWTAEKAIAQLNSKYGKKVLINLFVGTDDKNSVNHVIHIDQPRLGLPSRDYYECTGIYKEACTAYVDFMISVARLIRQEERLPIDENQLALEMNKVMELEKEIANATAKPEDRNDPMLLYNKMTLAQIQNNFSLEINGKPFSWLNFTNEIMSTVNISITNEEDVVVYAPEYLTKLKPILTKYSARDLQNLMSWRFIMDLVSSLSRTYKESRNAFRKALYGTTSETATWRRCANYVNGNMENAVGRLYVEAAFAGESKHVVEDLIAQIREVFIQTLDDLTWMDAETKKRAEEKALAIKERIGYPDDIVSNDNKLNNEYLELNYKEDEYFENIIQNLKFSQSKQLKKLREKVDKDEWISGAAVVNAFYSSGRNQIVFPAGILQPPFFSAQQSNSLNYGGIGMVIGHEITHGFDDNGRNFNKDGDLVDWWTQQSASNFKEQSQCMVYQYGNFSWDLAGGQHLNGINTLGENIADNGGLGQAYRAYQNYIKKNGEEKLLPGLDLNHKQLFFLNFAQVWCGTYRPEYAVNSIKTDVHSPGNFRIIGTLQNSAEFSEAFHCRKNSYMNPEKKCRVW

In the case of `CC[C@H](C)[C@@H]1NC(=O)[C@H](CCCNC(=N)N)NC(=O)[C@H](CC(=O)O)NC(=O)[C@H](CC(C)C)NC(=O)[C@H](CCCCN)NC(=O)[C@H](CC(C)C)NC(=O)CNC(=O)[C@H](Cc2ccccc2)NC(=O)[C@@H](NC(=O)CNC(=O)[C@H](CCCCN)NC(=O)[C@H](CO)NC(=O)[C@H](CC(C)C)NC(=O)CN)CSSC[C@@H](C(=O)N2CCC[C@H]2C(=O)N[C@@H](CO)C(=O)N[C@@H](CO)C(=O)N[C@@H](CCCNC(=N)N)C(=O)N[C@@H](C)C(=O)N2CCC[C@H]2C(=O)N[C@@H](CCCNC(=N)N)C(=O)N2CCC[C@H]2C(=O)N[C@@H](CC(N)=O)C(=O)N[C@@H](C)C(=O)N2CCC[C@H]2C(=O)N[C@@H](CO)C(=O)N[C@H](C(=O)N[C@@H](CO)C(=O)N[C@@H](C)C(=O)O)[C@@H](C)O)NC(=O)CNC(=O)[C@H](CC(C)C)NC(=O)CNC(=O)[C@H](CO)NC(=O)[C@H](CCSC)NC(=O)[C@H](CO)NC(=O)CNC1=O` [CDNP-SRA] (HELM PEPTIDE1{G.L.S.K.G.C.F.G.L.K.L.D.R.I.G.S.M.S.G.L.G.C.P.S.S.R.A.P.R.P.N.A.P.S.T.S.A}$PEPTIDE1,PEPTIDE1,6:R3-22:R3$$$V2.0), in data set [1], the “sensitivity to NEP degradation” value is given as “comparable NEP sensitivity”. Moreover, on NPR-B, the “% efficacy versus CDNP on NPR-B” value worked out at 118%; the “Approximate fold gain in selectivity versus CDNP” value was 1.2 fold and 1.23 fold; the “Approximate fold selectivity NPR-B versus NPR-A” value is 3.59 fold; the “NPR-B selective efficacy gain” value is 82%. Also, on NPR-A, the “% efficacy versus CDNP on NPR-A” value is given as 36% and the “% loss in efficacy versus CDNP” value came to 82%.
